According to ChEMBL document CHEMBL3638962, “Heteroarylcarboxylic acid ester derivative” (2013):

target: Enteropeptidase (Homo sapiens, UniProt P98073); test: Inhibition Assay: Inhibition assay using human enteropeptidase.
Sequence (P98073 2-784 limits assumed): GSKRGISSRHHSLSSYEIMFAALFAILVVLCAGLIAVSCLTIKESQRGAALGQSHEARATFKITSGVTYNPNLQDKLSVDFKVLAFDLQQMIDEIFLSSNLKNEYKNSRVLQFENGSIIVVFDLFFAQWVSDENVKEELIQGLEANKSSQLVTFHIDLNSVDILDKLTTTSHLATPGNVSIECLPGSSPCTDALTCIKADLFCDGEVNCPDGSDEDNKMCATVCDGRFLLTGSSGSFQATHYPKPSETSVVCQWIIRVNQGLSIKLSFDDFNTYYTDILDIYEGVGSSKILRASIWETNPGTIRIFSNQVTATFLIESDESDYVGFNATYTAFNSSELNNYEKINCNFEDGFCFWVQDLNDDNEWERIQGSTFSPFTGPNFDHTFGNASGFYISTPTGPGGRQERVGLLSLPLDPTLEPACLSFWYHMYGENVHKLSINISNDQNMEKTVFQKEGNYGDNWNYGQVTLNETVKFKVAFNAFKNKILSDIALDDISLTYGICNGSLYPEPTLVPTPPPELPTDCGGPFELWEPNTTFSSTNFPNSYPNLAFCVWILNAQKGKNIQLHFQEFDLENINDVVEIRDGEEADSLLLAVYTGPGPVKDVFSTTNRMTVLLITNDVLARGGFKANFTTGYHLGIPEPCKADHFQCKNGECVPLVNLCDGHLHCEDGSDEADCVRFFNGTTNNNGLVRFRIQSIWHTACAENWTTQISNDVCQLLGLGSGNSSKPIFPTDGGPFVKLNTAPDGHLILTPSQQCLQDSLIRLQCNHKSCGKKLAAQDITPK
Sequence (P98073 785-1019 limits assumed): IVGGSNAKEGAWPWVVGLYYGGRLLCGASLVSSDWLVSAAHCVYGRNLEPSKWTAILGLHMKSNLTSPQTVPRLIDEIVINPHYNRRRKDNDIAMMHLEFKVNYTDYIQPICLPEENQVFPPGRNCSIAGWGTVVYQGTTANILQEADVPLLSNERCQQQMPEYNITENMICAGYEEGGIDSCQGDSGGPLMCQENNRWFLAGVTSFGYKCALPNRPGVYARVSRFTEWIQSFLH

**Q.** With `N=C(N)c1ccc(OC(=O)c2ccc(CCC(=O)N(CCC(=O)O)CC(=O)O)o2)cc1` as the molecule, how does the Ki read?
**A.** 0.6 nM

**Q.** Which Ki does the source give for `CC(Cc1ccc(C(=O)Oc2ccc(C(=N)N)cc2)o1)C(=O)O[C@H](CC(=O)O)C(=O)O` (stereo partly drawn) here?
**A.** 0.68 nM

**Q.** For `CC(Cc1ncc(C(=O)Oc2ccc(C(=N)N)cc2F)s1)C(=O)N[C@@H](CC(=O)O)C(=O)O` (stereo partly drawn), which Ki is on record?
**A.** 3.7 nM
